Assay results: PubChem BioAssay (NCI)
Where “and” joins values, the source holds several entries; their conditions need not be identical. Identical values can stand only once.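 Step 1: Grow cells in 96-well plates. Step 2: Expose to compound for 48 hours at 5 concentrations. Step 3: Interpolate endpoints linearly; if unreached, use highest concentration. Here, GI50 denotes the concentration required for 50% inhibition of growth. The concentration for full growth arrest is given as TGI.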

How the values were obtained:
Assay in all cases: NCI tumour cell line growth inhibition, 48 h
[1] = system: KM12 colon
[2] = system: SF-268 CNS
[3] = system: K-562 leukemia
[4] = system: HOP-92 NSCLC
[5] = system: U251 CNS
[6] = system: SF-295 CNS
[7] = system: SR leukemia
[8] = system: MDA-MB-231 breast
[9] = system: HS 578T breast

SMILES | TGI [1] [µM] | TGI [2] | TGI [3] [µM] | TGI [4] | TGI [5] | TGI [6] | GI50 [1] [µM] | GI50 [3] [µM] | GI50 [7] [µM] | TGI [7] [µM] | GI50 [4] [µM] | GI50 [5] [µM] | GI50 [6] [µM] | GI50 [8] [µM] | TGI [8] [µM] | GI50 [9] [µM] | TGI [9] [µM]
CN(C)/C=N\c1ccnc(=O)[nH]1 | > 100 | > 100 µM | > 100 | > 100 µM | > 100 µM | > 100 µM |  |  |  |  |  |  |  |  |  |  | 
CC(C)(O)/C=C/C(=O)[C@](C)(O)[C@H]1[C@H](O)C[C@@]2(C)[C@@H]3CC=C4[C@@H](C[C@H](O)C(=O)C4(C)C)[C@]3(C)C(=O)C[C@]12C | 25 | 0.631 µM and 0.807 µM | 37 | 0.439 µM and 0.407 µM | 0.419 µM and 0.322 µM | 0.629 µM and 2.61 µM | 0.948 | 0.0608 | 0.39 | 5.05 | 0.255 | 0.105 | 0.264 |  |  |  | 
N#C/C(=C\c1cccc(O)c1O)C(N)=O | > 100 | > 100 µM | > 100 | > 100 µM | > 100 µM | > 100 µM |  |  |  |  |  |  |  |  |  |  | 
CC(=O)NC(CCCCN)C(=O)NCc1ccccc1 (stereo not given) | > 100 | > 100 µM | > 100 | > 100 µM | > 100 µM | > 100 µM |  |  |  |  |  |  |  |  |  |  | 
Cc1c(C(=O)/C=C/C=C/c2ccccc2)[n+](=O)c2ccccc2n1[O-] | 43.7 | > 100 µM | > 100 | 89.1 µM | > 100 µM | > 100 µM |  |  |  |  |  |  |  |  |  |  | 
CC1(c2cc3c(cc2Br)OCO3)SCCCS1 | > 100 | > 100 µM | > 100 | 51.7 µM | > 100 µM | > 100 µM |  |  |  |  |  |  |  |  |  |  | 
Cc1ccc(Oc2ccccc2N)cc1 | > 100 | > 100 µM | > 100 | > 100 µM | 22.1 µM | > 100 µM |  |  |  | > 100 |  |  |  |  |  |  | 
NNc1cnn(-c2ccccc2)c(=O)c1Cl | > 100 | > 100 µM | > 100 | > 100 µM | > 100 µM | > 100 µM |  |  |  | > 100 |  |  |  |  |  |  | 
Cc1cccc2c1c1ccc3c(c1n2C)C(=O)C=CC3=O | 28.6 | 36.5 µM | 6.03 | 4.34 µM | 25.8 µM | 30.9 µM |  |  |  | 4.45 |  |  |  |  |  |  | 
CNc1ccc2ncccc2c1[N+](=O)[O-] | > 100 | > 100 µM | > 100 | > 100 µM |  | > 100 µM |  |  |  | > 100 |  |  |  |  |  |  | 
Cc1cc(C)nc(/C(=N\NC(N)=O)C(=O)Nc2nc3ccc(C)cc3s2)c1 | > 100 | > 100 µM | > 100 | > 100 µM | > 100 µM | > 100 µM |  |  |  | 40.7 |  |  |  |  |  |  | 
C#CCNC(=O)ON1C(=O)CCC1=O | > 100 | > 100 µM | > 100 |  | > 100 µM | > 100 µM |  |  |  |  |  |  |  |  |  |  | 
CCc1cccc(C)c1NC(=O)CCc1nnc2s/c(=C\c3cccc4ccccc34)c(=O)n12 | > 100 | > 100 µM | > 100 | > 100 µM | > 100 µM | > 100 µM |  |  |  |  |  |  |  |  |  |  | 
COc1ccc2c(c1OC)-c1c(c3ccc([N+](=O)[O-])cc3c(=O)n1CCCBr)C2=O | > 100 |  | > 100 |  |  | > 100 µM | > 100 | 99.7 | 4.67 | > 100 |  |  | 28.6 | 55 | > 100 | 70.6 | > 100
